Measurements: US11319303B2 (WIGEN BIOMEDICINE TECHNOLOGY (SHANGHAI) CO., LTD., priority 2017, dated 2022)
Counter-ions that a name gives are not always drawn.

Biological target: LC3B (Homo sapiens, UniProt Q9GZQ8)
Experiment: Fluorescence Polarization (FP) Assay: displacement of FITC-labeled peptide from GST-LC3B
Format: binding
Details: Fluorescence Polarization assay; GST-LC3B 180 nM, FITC-labeled peptide 18 nM, 25° C.; read-out: IC50
Protocol: The compounds of the present invention for regulating the autophagy-related protein LC3B were tested by Fluorescence Polarization (FP) Assay.
Fluorescence Polarization (FP) Assay Test

Row | SMILES | IC50 [µM]
1 | O=C1CC(c2ccsc2)CC(=O)C1=CO (stereo not drawn) [Compound 456, 2-(hydroxy-methylene)-5-(3-thiophen)cyclo-hexane-1,3-dione lithium salt] | 3 to 15
2 | O=C1CC(c2ccsc2)CC(=O)C1=CO (stereo not drawn) [Compound 457, 2-(hydroxy-methylene)-5-(3-thiophen)cyclo-hexane-1,3-dione sodium salt] | 3 to 15
3 | O=C1CC(c2ccsc2)CC(=O)C1=CO (stereo not drawn) [Compound 458, 2-(hydroxy-methylene)-5-(3-thiophen)cyclo-hexane-1,3-dione potassium salt] | 3 to 15
4 | O=C1CC(c2cccc3[nH]ccc23)CC(=O)C1=CO (stereo not drawn) [Compound 459, 2-(hydroxy-methylene)-5-(1H-indol-4-yl)cyclo-hexane-1,3-dione lithium salt] | < 3
5 | O=C1CC(c2cccc3[nH]ccc23)CC(=O)C1=CO (stereo not drawn) [Compound 460, 2-(hydroxy-methylene)-5-(1H-indol-4-yl)cyclo-hexane-1,3-dione sodium salt] | < 3
6 | O=C1CC(c2cccc3[nH]ccc23)CC(=O)C1=CO (stereo not drawn) [Compound 461, 2-(hydroxy-methylene)-5-(1H-indol-4-yl)cyclo-hexane-1,3-dione potassium salt] | < 3
